Laboratory results reported in patent publication US7615361B2, “Toxicity screening methods” (Ceetox, Inc., priority 2006, dated 2009).

What was measured:
[1] = Intracellular total glutathione (GSH); settings: human
Experimental: (§1) Intracellular Glutathione (GSH) Levels: Intracellular glutathione levels were determined essentially as described by Griffith (1980) with modifications. At the end of the exposure period, the medium was removed from the cells and metaphosphoric acid (MPA) was added to each well. Plates were then shaken for 5 min at room temperature and stored at −20° C. until needed.
(§2) The sample plates were thawed just prior to analysis and centrifuged at >2000×g for at least 2 min. Sample aliquots were removed and transferred to a clean 96-well plate along with appropriate standard curve controls. Sample pH was neutralized just prior to analysis and each well received an aliquot of sodium phosphate reaction buffer containing EDTA, DTNB, NADPH, and glutathione reductase. The plates were mixed for 15-30 min at room temperature and glutathione content was determined calorimetrically with a Packard Fusion or equivalent reader at 415 nm.
(§3) Intracellular Glutathione (GSH) Levels: The assay is based on the concept that all GSH is oxidized to GSSG by DTNB reagent. Two molecules of GSH are required to make one molecule of GSSG. Total GSH was determined by reducing GSSG to 2GSH with glutathione reductase. A standard curve was prepared with oxidized glutathione (GSSG) over a range of concentrations. These concentrations are then converted to glutathione equivalents (GSX) essentially by multiplying the GSSG standard concentrations by 2. The amount of GSX expressed as pmoles/well was determined using the standard curve and regression analysis.
(§4) The test compound consisted of two parts mixed in a constant ratio of 5:1. The final test mixture consisted of Test mix 1 and Test mix 2, which were received as frozen solutions. The test mixture was tested in a ratio of 5:1 COMP A in five different cell types which included the following: SK-MEL28, human hepatocytes, HUVEC, C32, and NHEM cells. Cells were seeded into 96-well plates and cultured in medium containing 10% bovine serum. Following an equilibration period of 48 hr, the cells were treated with the test compound mix at concentrations of COMP A (μg/mL)=(250:50), (125:25), (25:12.5), (12.5:2.5), (2.5:1.25), (1.25:0.25), and (0.25:0.05) for 24 hr (overnight) at 37° C. in 5% CO2. […] Following an equilibration period of 4 hr, the cells were treated with the test compound mix at concentrations of COMP A (μg/mL)=(250:50), (125:25), (25:12.5), (12.5:2.5), (2.5:1.25), (1.25:0.25), and (0.25:0.05) for 24 hr (overnight) at 37° C. in 5% CO2.
(§5) Experimental Protocol: The test compounds were shipped on dry ice for testing. The compounds were stored frozen at −80° C. until needed. Dosing solutions were prepared in complete culture medium. SK-MEL28, human hepatocytes, HUVEC, C32, and NHEM cells were used as the test systems. Cells were seeded into 96-well plates and allowed to equilibrate for approximately 48 hr. Following the equilibration period the cells were exposed to the test compound mix at concentrations of COMP A (μg/mL)=(250:50), (125:25), (25:12.5), (12.5:2.5), (2.5:1.25), (1.25:0.25), and (0.25:0.05). […] Following the exposure period, the cells or their supernatant (culture medium) were analyzed for changes in cell proliferation, membrane leakage, mitochondrial function, oxidative stress, and apoptosis. The resultant exposure concentration response curves were graphed and analyzed for determining the concentration that produced a half maximal response or TC50.

[2] = system: SK-MEL28 cells; test: Intracellular total glutathione (GSH)
Experimental: as §1, §2, §3, §4, §5

[3] = target: T1, P-glycoprotein (PgP) (Homo sapiens, UniProt P08183); test: P-glycoprotein (PgP) binding: MTT with and without cyclosporin A, human hepatocytes; type: cell-based; parameters: SK-MEL28, human hepatocytes, HUVEC, C32, and NHEM cells were used as the test systems; endogenous in cells; settings: for % Control (Compound + CSA) / % Control (Compound): human hepatocytes 24 HR, MTT; for % Control (Compound + CSA): with cyclosporin A; for % Control (Compound): without CSA; for % Difference: human hepatocytes, 24 HR
T1 sequence (P08183 whole entry): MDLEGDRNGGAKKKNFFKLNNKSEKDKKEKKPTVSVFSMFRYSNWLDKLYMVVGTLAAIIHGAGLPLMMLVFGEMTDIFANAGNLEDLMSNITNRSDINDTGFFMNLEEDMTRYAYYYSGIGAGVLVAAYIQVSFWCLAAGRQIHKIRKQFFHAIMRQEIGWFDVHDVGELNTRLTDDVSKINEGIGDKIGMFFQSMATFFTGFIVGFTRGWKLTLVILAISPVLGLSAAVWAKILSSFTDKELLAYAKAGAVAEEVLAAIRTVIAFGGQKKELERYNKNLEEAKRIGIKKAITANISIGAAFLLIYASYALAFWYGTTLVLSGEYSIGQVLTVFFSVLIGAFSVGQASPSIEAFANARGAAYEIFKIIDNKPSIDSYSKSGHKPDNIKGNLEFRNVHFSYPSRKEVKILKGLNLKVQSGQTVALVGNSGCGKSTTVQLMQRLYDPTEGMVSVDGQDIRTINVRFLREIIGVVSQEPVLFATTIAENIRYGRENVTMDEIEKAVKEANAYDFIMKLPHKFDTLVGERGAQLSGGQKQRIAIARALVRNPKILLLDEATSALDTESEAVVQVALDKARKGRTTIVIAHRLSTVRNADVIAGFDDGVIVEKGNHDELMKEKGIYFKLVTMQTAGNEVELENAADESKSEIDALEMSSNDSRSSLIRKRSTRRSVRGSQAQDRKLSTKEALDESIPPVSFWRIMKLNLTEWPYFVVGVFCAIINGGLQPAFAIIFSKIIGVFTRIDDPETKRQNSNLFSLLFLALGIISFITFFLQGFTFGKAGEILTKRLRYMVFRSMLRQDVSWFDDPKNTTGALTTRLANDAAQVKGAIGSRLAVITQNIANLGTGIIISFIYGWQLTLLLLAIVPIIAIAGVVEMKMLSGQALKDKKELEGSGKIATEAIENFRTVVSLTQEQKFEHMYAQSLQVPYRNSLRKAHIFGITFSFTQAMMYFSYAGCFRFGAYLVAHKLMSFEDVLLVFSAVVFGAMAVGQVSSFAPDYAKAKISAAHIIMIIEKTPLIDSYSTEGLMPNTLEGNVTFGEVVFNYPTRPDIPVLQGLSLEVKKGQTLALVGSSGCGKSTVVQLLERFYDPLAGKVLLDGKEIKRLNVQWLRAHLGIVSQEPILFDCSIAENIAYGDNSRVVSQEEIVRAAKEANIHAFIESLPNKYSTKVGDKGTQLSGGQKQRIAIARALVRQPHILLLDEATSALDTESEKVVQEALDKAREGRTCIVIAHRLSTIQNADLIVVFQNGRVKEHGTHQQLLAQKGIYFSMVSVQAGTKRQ
Experimental: P-glycoprotein (PgP) transport proteins are expressed in the bile canalicular membrane of normal liver. However, in neoplastic cells it is not uncommon to have expression of this transporter system in the plasma membrane. The H4IIE cells have a very active efflux pump activity in the plasma membrane. As a result, compounds that are substrates for this transporter may not accumulate inside the cell. The existence of these transporters was evaluated with the Calcein-AM assay and with known substrates of PgP. […] Therefore, compounds that show negative toxicity should be evaluated as potential substrates of PgP and compared to data shown in the PgP table of this example.
The cell supernatant or the cells themselves were harvested for biochemical analysis. General cytotoxicity was evaluated by monitoring membrane integrity, mitochondrial function, cell proliferation, oxidative stress, and apoptosis. In addition to monitoring biochemical changes essential for cell health, interaction with P-glycoprotein (PgP) and solubility were also assessed. The means of each exposure group (n=3-7) were calculated for each assay performed. Intra assay variation well to well was typically less than 10% with plate to plate variation typically less than 20%.

[4] = target: T1, P-glycoprotein (PgP); test: P-glycoprotein (PgP) binding: MTT with and without cyclosporin A, HUVEC; type: cell-based; parameters: SK-MEL28, human hepatocytes, HUVEC, C32, and NHEM cells were used as the test systems; endogenous in cells; settings: HUVEC 24 HR; for % Control (Compound + CSA): with cyclosporin A; for % Control (Compound): without CSA
[5] = SK-MEL28, 24 HR, COMP A (LOW) / controls #2
[6] = SK-MEL28, 72 HR, COMP A (LOW) / controls #2

**Q.** For `CC[C@@]1(O)C(=O)OCc2c1cc1n(c2=O)Cc2cc3ccccc3nc2-1` [CAMPTOTHECIN, Camptothecin], which CC50 at 24 h ([1]; SK-MEL28 cells) is on record?
**A.** 10 µM

**Q.** And the CC50 at 72 h ([1]; SK-MEL28 cells)?
**A.** 0.1 µM

**Q.** What about the “Percent Change in Total GSH” value ([2]; SK-MEL28, 24 HR) of the same molecule?
**A.** −46.0%

**Q.** What about the “Percent Change in Total GSH” value [2, 5] of the same molecule?
**A.** −57.9%

**Q.** What about the “Percent Change in Total GSH” value [2, 6] of the same molecule?
**A.** −88.8%

**Q.** What about the “% Control (Compound + CSA)” value [3] of the same molecule?
**A.** 65.8%

**Q.** What about the “% Control (Compound)” value [3] of the same molecule?
**A.** 88.5%

**Q.** What about the “% Difference” value [3] of the same molecule?
**A.** 25.7%

**Q.** What about the “% Control (Compound + CSA)” value [4] of the same molecule?
**A.** 18.0%

**Q.** And the “% Control (Compound)” value [4]?
**A.** 29.4%

**Q.** With `C=C(C)[C@H]1Cc2c(ccc3c2O[C@@H]2COc4cc(OC)c(OC)cc4[C@@H]2C3=O)O1` [ROTENONE, Rotenone] as the molecule, how does the CC50 at 72 h [1] read?
**A.** 0.1 µM

**Q.** And the “Percent Change in Total GSH” value ([2]; SK-MEL28, 24 HR)?
**A.** 52.8%

**Q.** And the “Percent Change in Total GSH” value [2, 5]?
**A.** 49.9%

**Q.** And the “Percent Change in Total GSH” value [2, 6]?
**A.** 85.1%

**Q.** What about the “% Control (Compound + CSA)” value [3] of the same molecule?
**A.** 60.9%

**Q.** What about the “% Control (Compound)” value [3] of the same molecule?
**A.** 97.1%

**Q.** What about the “% Difference” value [3] of the same molecule?
**A.** 37.2%

**Q.** And the “% Control (Compound + CSA)” value [4]?
**A.** 77.8%

**Q.** And the “% Control (Compound)” value [4]?
**A.** 75.4%
